# Data from patent US10765114B2, “4-amino-6-(pyridyl and 2-substitutedphenyl)-picolinates and 6-amino-2-(pyridyl and 2-substitutedphenyl)-pyrimidine-4-carboxylates and their use as herbicides” (Dow AgroSciences LLC, priority 2013, dated 2020).
# Test system: Key Grass and Sedge Weeds as well as Grass Crops
# Experiment: Post-Emergent Test II (Table 6)
# Assay type: in vivo
# Details: post-emergence, 336 h, CYPSS, 70 g ai/ha, 14 days after application, read-out: Visual Growth Reduction (%) 14 Days After Application CYPSS
# Outline: (§1)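 Plants grown in a greenhouse (~15 h photoperiod, 23-29° C day) to first or second true leaf stage were sprayed post-emergence at 187 L/ha with compound in acetone/DMSO-based aqueous spray containing crop oil concentrate and surfactant, applied at a high rate plus ½× to 1/16× serial rates. Injury was scored visually 14 days later, 0-100% versus untreated plants.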
row,SMILES,pest or weed control at 70 g/ha [%]
1,COC(=O)c1nc(-c2ccc(C(F)(F)F)nc2)cc(N)c1Cl [Compound 4],60 to 74

# Same assay, conditions: post-emergence, 336 h, CYPSS, 140 g ai/ha, 14 days after application, read-out: Visual Growth Reduction (%) 14 Days After Application CYPSS
row,SMILES,pest or weed control at 140 g/ha [%]
1,COC(=O)c1nc(-c2ccc(C(F)(F)F)nc2)cc(N)c1Cl [Compound 4],60 to 74

# Same assay, conditions: post-emergence, 336 h, DIGSA: crabgrass (Digitaria sanguinalis), 70 g ai/ha, 14 days after application, read-out: Visual Growth Reduction (%) 14 Days After Application DIGSA
row,SMILES,pest or weed control at 70 g/ha [%]
1,COC(=O)c1nc(-c2ccc(C(F)(F)F)nc2)cc(N)c1Cl [Compound 4],0 to 29

# Same assay, conditions: post-emergence, 336 h, DIGSA: crabgrass (Digitaria sanguinalis), 140 g ai/ha, 14 days after application, read-out: Visual Growth Reduction (%) 14 Days After Application DIGSA
row,SMILES,pest or weed control at 140 g/ha [%]
1,COC(=O)c1nc(-c2ccc(C(F)(F)F)nc2)cc(N)c1Cl [Compound 4],0 to 29

# Same assay, conditions: post-emergence, 336 h, ECHSS, 70 g ai/ha, 14 days after application, read-out: Visual Growth Reduction (%) 14 Days After Application ECHSS
row,SMILES,pest or weed control at 70 g/ha [%]
1,COC(=O)c1nc(-c2ccc(C(F)(F)F)nc2)cc(N)c1Cl [Compound 4],30 to 44

# Same assay, conditions: post-emergence, 336 h, ECHSS, 140 g ai/ha, 14 days after application, read-out: Visual Growth Reduction (%) 14 Days After Application ECHSS
row,SMILES,pest or weed control at 140 g/ha [%]
1,COC(=O)c1nc(-c2ccc(C(F)(F)F)nc2)cc(N)c1Cl [Compound 4],75 to 84

# Same assay, conditions: post-emergence, 336 h, ORYSS (crop), 70 g ai/ha, 14 days after application, read-out: Visual Growth Reduction (%) 14 Days After Application ORYSS
row,SMILES,pest or weed control at 70 g/ha [%]
1,COC(=O)c1nc(-c2ccc(C(F)(F)F)nc2)cc(N)c1Cl [Compound 4],0 to 29

# Same assay, conditions: post-emergence, 336 h, ORYSS (crop), 140 g ai/ha, 14 days after application, read-out: Visual Growth Reduction (%) 14 Days After Application ORYSS
row,SMILES,pest or weed control at 140 g/ha [%]
1,COC(=O)c1nc(-c2ccc(C(F)(F)F)nc2)cc(N)c1Cl [Compound 4],0 to 29

# Same assay, conditions: post-emergence, 336 h, SETFA: giant foxtail (Setaria faberi), 70 g ai/ha, 14 days after application, read-out: Visual Growth Reduction (%) 14 Days After Application SETFA
row,SMILES,pest or weed control at 70 g/ha [%]
1,COC(=O)c1nc(-c2ccc(C(F)(F)F)nc2)cc(N)c1Cl [Compound 4],0 to 29

# Same assay, conditions: post-emergence, 336 h, SETFA: giant foxtail (Setaria faberi), 140 g ai/ha, 14 days after application, read-out: Visual Growth Reduction (%) 14 Days After Application SETFA
row,SMILES,pest or weed control at 140 g/ha [%]
1,COC(=O)c1nc(-c2ccc(C(F)(F)F)nc2)cc(N)c1Cl [Compound 4],0 to 29

# Same assay, conditions: post-emergence, 336 h, SORVU: grain sorghum (Sorghum vulgare), 70 g ai/ha, 14 days after application, read-out: Visual Growth Reduction (%) 14 Days After Application SORVU
row,SMILES,pest or weed control at 70 g/ha [%]
1,COC(=O)c1nc(-c2ccc(C(F)(F)F)nc2)cc(N)c1Cl [Compound 4],45 to 59

# Same assay, conditions: post-emergence, 336 h, SORVU: grain sorghum (Sorghum vulgare), 140 g ai/ha, 14 days after application, read-out: Visual Growth Reduction (%) 14 Days After Application SORVU
row,SMILES,pest or weed control at 140 g/ha [%]
1,COC(=O)c1nc(-c2ccc(C(F)(F)F)nc2)cc(N)c1Cl [Compound 4],60 to 74

# Same assay, conditions: post-emergence, 336 h, TRZSS (crop), 70 g ai/ha, 14 days after application, read-out: Visual Growth Reduction (%) 14 Days After Application TRZSS
row,SMILES,pest or weed control at 70 g/ha [%]
1,COC(=O)c1nc(-c2ccc(C(F)(F)F)nc2)cc(N)c1Cl [Compound 4],0 to 29

# Same assay, conditions: post-emergence, 336 h, TRZSS (crop), 140 g ai/ha, 14 days after application, read-out: Visual Growth Reduction (%) 14 Days After Application TRZSS
row,SMILES,pest or weed control at 140 g/ha [%]
1,COC(=O)c1nc(-c2ccc(C(F)(F)F)nc2)cc(N)c1Cl [Compound 4],0 to 29

# Same assay, conditions: post-emergence, 336 h, ZEAMX: maize, corn (Zea mays), 70 g ai/ha, 14 days after application, read-out: Visual Growth Reduction (%) 14 Days After Application ZEAMX
row,SMILES,pest or weed control at 70 g/ha [%]
1,COC(=O)c1nc(-c2ccc(C(F)(F)F)nc2)cc(N)c1Cl [Compound 4],0 to 29

# Same assay, conditions: post-emergence, 336 h, ZEAMX: maize, corn (Zea mays), 140 g ai/ha, 14 days after application, read-out: Visual Growth Reduction (%) 14 Days After Application ZEAMX
row,SMILES,pest or weed control at 140 g/ha [%]
1,COC(=O)c1nc(-c2ccc(C(F)(F)F)nc2)cc(N)c1Cl [Compound 4],0 to 29

# Test system: Key Broadleaf Weed and Crop Species
# Experiment: Post-Emergent Test II (Table 5)
# Assay type: in vivo
# Details: Abutilon theophrasti, post-emergence, 336 h, ABUTH: velvetleaf (Abutilon theophrasti), application rate 70 (kg ai/ha; footnote: g ai/ha), read-out: Visual Growth Reduction (%) 14 Days After Application ABUTH
# Outline: as §1
row,SMILES,pest or weed control at 70 g/ha [%]
1,COC(=O)c1nc(-c2ccc(C(F)(F)F)nc2)cc(N)c1Cl [Compound 4],75 to 84

# Same assay, conditions: Abutilon theophrasti, post-emergence, 336 h, ABUTH: velvetleaf (Abutilon theophrasti), application rate 140 (kg ai/ha; footnote: g ai/ha), read-out: Visual Growth Reduction (%) 14 Days After Application ABUTH
row,SMILES,pest or weed control at 140 g/ha [%]
1,COC(=O)c1nc(-c2ccc(C(F)(F)F)nc2)cc(N)c1Cl [Compound 4],75 to 84

# Same assay, conditions: Amaranthus retroflexus, post-emergence, 336 h, AMARE: redroot pigweed (Amaranthus retroflexus), application rate 70 (kg ai/ha; footnote: g ai/ha), read-out: Visual Growth Reduction (%) 14 Days After Application AMARE
row,SMILES,pest or weed control at 70 g/ha [%]
1,COC(=O)c1nc(-c2ccc(C(F)(F)F)nc2)cc(N)c1Cl [Compound 4],85 to 94

# Same assay, conditions: Amaranthus retroflexus, post-emergence, 336 h, AMARE: redroot pigweed (Amaranthus retroflexus), application rate 140 (kg ai/ha; footnote: g ai/ha), read-out: Visual Growth Reduction (%) 14 Days After Application AMARE
row,SMILES,pest or weed control at 140 g/ha [%]
1,COC(=O)c1nc(-c2ccc(C(F)(F)F)nc2)cc(N)c1Cl [Compound 4],95 to 100

# Same assay, conditions: Brassica napus, post-emergence, 336 h, BRSSS: oilseed rape, canola (Brassica napus), application rate 70 (kg ai/ha; footnote: g ai/ha), read-out: Visual Growth Reduction (%) 14 Days After Application BRSSS
row,SMILES,pest or weed control at 70 g/ha [%]
1,COC(=O)c1nc(-c2ccc(C(F)(F)F)nc2)cc(N)c1Cl [Compound 4],30 to 44

# Same assay, conditions: Brassica napus, post-emergence, 336 h, BRSSS: oilseed rape, canola (Brassica napus), application rate 140 (kg ai/ha; footnote: g ai/ha), read-out: Visual Growth Reduction (%) 14 Days After Application BRSSS
row,SMILES,pest or weed control at 140 g/ha [%]
1,COC(=O)c1nc(-c2ccc(C(F)(F)F)nc2)cc(N)c1Cl [Compound 4],60 to 74

# Same assay, conditions: Chenopodium album, post-emergence, 336 h, CHEAL: lambsquarters (Chenopodium album), application rate 70 (kg ai/ha; footnote: g ai/ha), read-out: Visual Growth Reduction (%) 14 Days After Application CHEAL
row,SMILES,pest or weed control at 70 g/ha [%]
1,COC(=O)c1nc(-c2ccc(C(F)(F)F)nc2)cc(N)c1Cl [Compound 4],75 to 84

# Same assay, conditions: Chenopodium album, post-emergence, 336 h, CHEAL: lambsquarters (Chenopodium album), application rate 140 (kg ai/ha; footnote: g ai/ha), read-out: Visual Growth Reduction (%) 14 Days After Application CHEAL
row,SMILES,pest or weed control at 140 g/ha [%]
1,COC(=O)c1nc(-c2ccc(C(F)(F)F)nc2)cc(N)c1Cl [Compound 4],85 to 94

# Same assay, conditions: Euphorbia heterophylla, post-emergence, 336 h, EPHHL: wild poinsettia (Euphorbia heterophylla), application rate 70 (kg ai/ha; footnote: g ai/ha), read-out: Visual Growth Reduction (%) 14 Days After Application EPHHL
row,SMILES,pest or weed control at 70 g/ha [%]
1,COC(=O)c1nc(-c2ccc(C(F)(F)F)nc2)cc(N)c1Cl [Compound 4],75 to 84

# Same assay, conditions: Euphorbia heterophylla, post-emergence, 336 h, EPHHL: wild poinsettia (Euphorbia heterophylla), application rate 140 (kg ai/ha; footnote: g ai/ha), read-out: Visual Growth Reduction (%) 14 Days After Application EPHHL
row,SMILES,pest or weed control at 140 g/ha [%]
1,COC(=O)c1nc(-c2ccc(C(F)(F)F)nc2)cc(N)c1Cl [Compound 4],85 to 94

# Same assay, conditions: Helianthus annuus, post-emergence, 336 h, HELAN: sunflower (Helianthus annuus), application rate 70 (kg ai/ha; footnote: g ai/ha), read-out: Visual Growth Reduction (%) 14 Days After Application HELAN
row,SMILES,pest or weed control at 70 g/ha [%]
1,COC(=O)c1nc(-c2ccc(C(F)(F)F)nc2)cc(N)c1Cl [Compound 4],60 to 74

# Same assay, conditions: Helianthus annuus, post-emergence, 336 h, HELAN: sunflower (Helianthus annuus), application rate 140 (kg ai/ha; footnote: g ai/ha), read-out: Visual Growth Reduction (%) 14 Days After Application HELAN
row,SMILES,pest or weed control at 140 g/ha [%]
1,COC(=O)c1nc(-c2ccc(C(F)(F)F)nc2)cc(N)c1Cl [Compound 4],75 to 84

# Same assay, conditions: Viola tricolor, post-emergence, 336 h, VIOTR: wild pansy (Viola tricolor), application rate 70 (kg ai/ha; footnote: g ai/ha), read-out: Visual Growth Reduction (%) 14 Days After Application VIOTR
row,SMILES,pest or weed control at 70 g/ha [%]
1,COC(=O)c1nc(-c2ccc(C(F)(F)F)nc2)cc(N)c1Cl [Compound 4],0 to 29

# Same assay, conditions: Viola tricolor, post-emergence, 336 h, VIOTR: wild pansy (Viola tricolor), application rate 140 (kg ai/ha; footnote: g ai/ha), read-out: Visual Growth Reduction (%) 14 Days After Application VIOTR
row,SMILES,pest or weed control at 140 g/ha [%]
1,COC(=O)c1nc(-c2ccc(C(F)(F)F)nc2)cc(N)c1Cl [Compound 4],0 to 29
